The values below come from US5670538A, “Use of prodelphinidins for obtaining medicaments intended for the treatment of arthrosis” (Laboratoires Dolisos, priority 1992, dated 1997).

The subject of this test is ferricytochrome C. Briefly: Control experiments: direct reduction of ferricytochrome C by the product itself. Type of test: biochemical. The conditions noted are these: effect not quantifiable. The source says:
This effect not being quantifiable, no conclusion can consequently be drawn on a possible inhibiting effect of these products on the production of the superoxide anion by the activated PMNs.

Turning to `O=c1ccc2cc(O[C@@H]3O[C@H](CO)[C@@H](O)[C@H](O)[C@H]3O)c(O)cc2o1` [esculoside, reference compound], the “Direct reduction of ferricytochrome C” value is “powerful reducers of ferricytochrome C”.
